Our source for the crystallinity degree values is patent publication US20090186009A1, “SOLID MATTER CONTAINING COENZYME Q” (Kaneka Corporation, priority 2006, published 2009).

The nature of the data set: Crystallization rate of coenzyme Q10 in granule by differential scanning calorimetric analysis. It counts as physicochemical. The following applies: DSC, calculated from melting heat (ΔH); 20° C.→80° C. (5° C./min)→−50° C. The procedure: Calorimetric analysis of coenzyme Q10 granules obtained in Example 1 and Example 4 and oxidized coenzyme Q10 powder (Kaneka-coenzyme Q10) used as the starting material in Preparation Examples 1-3 by a differential scanning calorimetric analyzer (manufactured by SII; EXSTAR6000 DSC6220) was performed under the following conditions. The crystallization rate was calculated from the measurement value of the melting heat (ΔH).
Analysis conditions; 20° C.→80° C. (5° C./min)→−50° C. (−5° C./min)

Molecules are shown by their SMILES.

Turning to `COC1=C(OC)C(=O)C(C/C=C(\C)CC/C=C(\C)CC/C=C(\C)CC/C=C(\C)CC/C=C(\C)CC/C=C(\C)CC/C=C(\C)CC/C=C(\C)CC/C=C(\C)CCC=C(C)C)=C(C)C1=O` [Kaneka coenzyme Q10, oxidized coenzyme Q10], the crystallinity degree is recorded as 100%.
